From ChEMBL document CHEMBL1201862, “PubChem BioAssay data set” (2004)
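Dose response: 5 concentrations. Exposure: 48 h. Format: 96-well plates. Endpoint: linear interpolation; highest concentration if not reached. GI50 marks 50% less growth.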 Active and inactive are the calls of the source. No stated cut-off is given here; in the data, active = GI50 up to about 1.1 µM and inactive = higher.

Assays:
Experiment in all cases: inhibition of tumour cell growth, NCI panel, 48 h
NCI-H23 = tested on: NCI-H23
TK-10 = tested on: TK-10
ACHN = tested on: ACHN
HCT-116 = tested on: HCT-116
CAKI-1 = tested on: CAKI-1
M14 = tested on: M14
U-251 = tested on: U-251
SNB-75 = tested on: SNB-75
RPMI-8226 = tested on: RPMI-8226
CCRF-CEM = tested on: CCRF-CEM
OVCAR-5 = tested on: OVCAR-5
SK-OV-3 = tested on: SK-OV-3
HOP-92 = tested on: HOP-92
NCI-H460 = tested on: NCI-H460
MOLT-4 = tested on: MOLT-4
SK-MEL-5 = tested on: SK-MEL-5
SNB-19 = tested on: SNB-19
A498 = tested on: A498
RXF 393 = tested on: RXF 393

SMILES | GI50 (NCI-H23) | GI50 (TK-10) | GI50 (ACHN) | GI50 (HCT-116) | GI50 (CAKI-1) | GI50 (M14) | GI50 (U-251) | GI50 (SNB-75) | GI50 (RPMI-8226) | GI50 (CCRF-CEM) | GI50 (OVCAR-5) | GI50 (SK-OV-3) | GI50 (HOP-92) | GI50 (NCI-H460) | GI50 (MOLT-4) | GI50 (SK-MEL-5) | GI50 (SNB-19) | GI50 (A498) | GI50 (RXF 393)
Cc1cc2c(=O)cc(-c3ccc(C(=O)O)cc3)oc2c(C(=O)O)c1C | > 100 µM (inactive) | > 100 µM (inactive) | > 100 µM (inactive) | > 100 µM (inactive) | > 100 µM (inactive) | > 100 µM (inactive) | > 100 µM (inactive) | > 100 µM (inactive) | > 100 µM (inactive) | > 100 µM (inactive) | > 100 µM (inactive) | > 100 µM (inactive) | > 100 µM (inactive) | > 100 µM (inactive) | > 100 µM (inactive) | > 100 µM (inactive) | > 100 µM (inactive) | – | –
CCc1nc(N)nc(N)c1-c1ccc(Cl)c(N=[N+]=[N-])c1 | 4.23 µM (inactive) | – | – | 1.19 µM (inactive) | – | – | 5.38 µM (inactive) | 18.8 µM (inactive) | 12.1 µM (inactive) | – | 21.8 µM (inactive) | 30.2 µM (inactive) | 10.7 µM (inactive) | – | – | 3.74 µM (inactive) | – | 16.5 µM (inactive) | –
C[C@]12CCC[C@H](O)[C@H]1C[C@H](CO)CC2 | > 100 µM (inactive) | > 100 µM (inactive) | > 100 µM (inactive) | > 100 µM (inactive) | > 100 µM (inactive) | > 100 µM (inactive) | > 100 µM (inactive) | > 100 µM (inactive) | > 100 µM (inactive) | > 100 µM (inactive) | > 100 µM (inactive) | > 100 µM (inactive) | > 100 µM (inactive) | > 100 µM (inactive) | > 100 µM (inactive) | – | > 100 µM (inactive) | > 100 µM (inactive) | –
CCOC(=O)C1=C(NC(C)(C)C)OCC1=O | 92.7 µM (inactive) | > 100 µM (inactive) | > 100 µM (inactive) | > 100 µM (inactive) | > 100 µM (inactive) | > 100 µM (inactive) | > 100 µM (inactive) | > 100 µM (inactive) | > 100 µM (inactive) | – | > 100 µM (inactive) | > 100 µM (inactive) | > 100 µM (inactive) | > 100 µM (inactive) | > 100 µM (inactive) | – | > 100 µM (inactive) | – | –
CN1C[C@@H]2CC(=O)CC[C@@H]2C[C@H]1C#N | – | – | > 100 µM (inactive) | > 100 µM (inactive) | > 100 µM (inactive) | > 100 µM (inactive) | – | > 100 µM (inactive) | > 100 µM (inactive) | > 100 µM (inactive) | > 100 µM (inactive) | > 100 µM (inactive) | > 100 µM (inactive) | > 100 µM (inactive) | > 100 µM (inactive) | > 100 µM (inactive) | > 100 µM (inactive) | > 100 µM (inactive) | –
C=C1C2CCCC1C1(S(C)(=O)=O)CCCCC21O (centres undefined) | > 100 µM (inactive) | > 100 µM (inactive) | > 100 µM (inactive) | > 100 µM (inactive) | > 100 µM (inactive) | > 100 µM (inactive) | > 100 µM (inactive) | > 100 µM (inactive) | > 100 µM (inactive) | – | > 100 µM (inactive) | > 100 µM (inactive) | < 0.01 µM (active) | > 100 µM (inactive) | > 100 µM (inactive) | > 100 µM (inactive) | > 100 µM (inactive) | – | –
NC(=O)COC(=O)c1c(Cl)nc2sccn12 | > 100 µM (inactive) | > 100 µM (inactive) | > 100 µM (inactive) | > 31.6 µM (inactive) | > 100 µM (inactive) | > 100 µM (inactive) | > 83 µM (inactive) | > 100 µM (inactive) | > 37 µM (inactive) | > 31.6 µM (inactive) | > 100 µM (inactive) | > 100 µM (inactive) | > 100 µM (inactive) | > 61.2 µM (inactive) | > 100 µM (inactive) | > 100 µM (inactive) | > 100 µM (inactive) | > 100 µM (inactive) | –
N#Cc1ccccc1Nc1ccccc1S | 37.8 µM (inactive) | > 100 µM (inactive) | 51.1 µM (inactive) | – | > 100 µM (inactive) | – | > 10 µM (inactive) | – | – | 6.68 µM (inactive) | 29.4 µM (inactive) | 57.1 µM (inactive) | 35.1 µM (inactive) | 35.2 µM (inactive) | 5.4 µM (inactive) | 17.9 µM (inactive) | 22.5 µM (inactive) | 53.7 µM (inactive) | 18.9 µM (inactive)
O=C(O)/C(Cl)=C(\Cl)C(=O)Nc1ccc(Cl)c(Cl)c1Cl | 18.7 µM (inactive) | 16.8 µM (inactive) | 18.1 µM (inactive) | 11.8 µM (inactive) | 18.1 µM (inactive) | 18.2 µM (inactive) | 19.5 µM (inactive) | 18.8 µM (inactive) | 28.9 µM (inactive) | 37.2 µM (inactive) | 18.2 µM (inactive) | 19.7 µM (inactive) | 17.2 µM (inactive) | 21.8 µM (inactive) | 23.8 µM (inactive) | 29.4 µM (inactive) | 15.3 µM (inactive) | 28.8 µM (inactive) | –
CCN(CC)c1c(C(=O)/C=C/c2ccccc2)c(-c2ccccc2)nn(C)c1=O | – | > 100 µM (inactive) | 8.51 µM (inactive) | – | > 100 µM (inactive) | – | – | – | – | 2.2 µM (inactive) | 6.53 µM (inactive) | > 100 µM (inactive) | 45.1 µM (inactive) | 3.83 µM (inactive) | 1.66 µM (inactive) | 5.02 µM (inactive) | 29.4 µM (inactive) | 5.43 µM (inactive) | 3.98 µM (inactive)
C=CCc1cc2cccc(OC)c2oc1=O | > 100 µM (inactive) | > 100 µM (inactive) | > 100 µM (inactive) | > 100 µM (inactive) | > 100 µM (inactive) | > 100 µM (inactive) | > 100 µM (inactive) | 87.5 µM (inactive) | > 100 µM (inactive) | 45.2 µM (inactive) | 66.1 µM (inactive) | – | 92.3 µM (inactive) | > 100 µM (inactive) | 63.4 µM (inactive) | 87.3 µM (inactive) | > 100 µM (inactive) | > 100 µM (inactive) | –
CC(C)c1cccc(C(C)C)c1NC(=O)/C(Cc1nc2ccc(Cl)cc2nc1O)=N\NC(=O)C[N+](C)(C)C | > 100 µM (inactive) | > 100 µM (inactive) | > 100 µM (inactive) | > 100 µM (inactive) | 95.7 µM (inactive) | > 100 µM (inactive) | – | – | > 100 µM (inactive) | > 100 µM (inactive) | > 100 µM (inactive) | > 100 µM (inactive) | 85.5 µM (inactive) | > 100 µM (inactive) | > 100 µM (inactive) | > 100 µM (inactive) | > 100 µM (inactive) | > 100 µM (inactive) | > 100 µM (inactive)
CC(N)C(=O)OCN1C(=O)C2C3C=CC(C2C1=O)C1C2C(=O)N(COC(=O)C(C)N)C(=O)C2C31 (centres undefined) | 22.1 µM (inactive) | 71.6 µM (inactive) | 27.7 µM (inactive) | 24.2 µM (inactive) | 72.6 µM (inactive) | 20.9 µM (inactive) | 24.5 µM (inactive) | 25.6 µM (inactive) | 23.9 µM (inactive) | 23.1 µM (inactive) | 47.8 µM (inactive) | 53.1 µM (inactive) | 57.5 µM (inactive) | 17.6 µM (inactive) | 21.5 µM (inactive) | 18.1 µM (inactive) | 52.2 µM (inactive) | – | 22.2 µM (inactive)
COc1cc(Br)c(/C=N\c2cccc3ccc(OS(=O)(=O)c4cccc([N+](=O)[O-])c4)cc23)cc1OC | 12.5 µM (inactive) | – | 32.8 µM (inactive) | 30.5 µM (inactive) | 19.1 µM (inactive) | – | 19.1 µM (inactive) | – | 24 µM (inactive) | 12.2 µM (inactive) | > 100 µM (inactive) | > 100 µM (inactive) | 2.44 µM (inactive) | 54.8 µM (inactive) | 8.18 µM (inactive) | 27.4 µM (inactive) | 60.1 µM (inactive) | 66.5 µM (inactive) | 16.3 µM (inactive)
COC(=O)C(=Cc1cc(OC)ccc1OC)C(=O)OC | – | 36.3 µM (inactive) | 17.3 µM (inactive) | – | 18.9 µM (inactive) | 15.3 µM (inactive) | 19.8 µM (inactive) | 19.9 µM (inactive) | 25.9 µM (inactive) | 20 µM (inactive) | 28.2 µM (inactive) | 31.5 µM (inactive) | 19.2 µM (inactive) | 30.8 µM (inactive) | 27.4 µM (inactive) | 19.1 µM (inactive) | 44 µM (inactive) | – | 16 µM (inactive)
CC(C)(Oc1ccc(C(=O)c2ccc(Cl)cc2)cc1Cl)C(=O)N1CCN(c2ccccc2)CC1 | 37.2 µM (inactive) | > 100 µM (inactive) | – | 82.2 µM (inactive) | – | > 100 µM (inactive) | > 100 µM (inactive) | – | > 100 µM (inactive) | > 100 µM (inactive) | > 100 µM (inactive) | > 100 µM (inactive) | > 100 µM (inactive) | > 100 µM (inactive) | > 100 µM (inactive) | 72.8 µM (inactive) | > 100 µM (inactive) | > 100 µM (inactive) | –
COC(=O)/N=C(\NC(=O)OC)Nc1ccc(Oc2ccccc2)cc1NC=O | 0.824 µM (active) | 9.57 µM (inactive) | 0.881 µM (active) | 0.49 µM (active) | – | 0.401 µM (active) | 0.333 µM (active) | 0.421 µM (active) | 2.55 µM (inactive) | 0.692 µM (active) | > 100 µM (inactive) | 0.215 µM (active) | 24.3 µM (inactive) | – | 0.836 µM (active) | 0.341 µM (active) | > 100 µM (inactive) | 0.294 µM (active) | –
